pIC50: −log10 of the molar value.
Assays:
[1] = test system: Rattus norvegicus; test: Effect of single oral administration of 15 mg/kg of compound on triglycerides of hypercholesterolemic rats; format: functional, organism-based; parameters: dose 15 mg/kg
[2] = molecular target: T1, Acyl-CoA:cholesterol acyltransferase (Oryctolagus cuniculus, UniProt Q95214); test: Inhibitory activity against acyl-CoA: cholesterol acyltransferase (ACAT) in microsomes from cholesterol-fed rabbit thoracic aorta
T1 sequence (Q95214 whole entry): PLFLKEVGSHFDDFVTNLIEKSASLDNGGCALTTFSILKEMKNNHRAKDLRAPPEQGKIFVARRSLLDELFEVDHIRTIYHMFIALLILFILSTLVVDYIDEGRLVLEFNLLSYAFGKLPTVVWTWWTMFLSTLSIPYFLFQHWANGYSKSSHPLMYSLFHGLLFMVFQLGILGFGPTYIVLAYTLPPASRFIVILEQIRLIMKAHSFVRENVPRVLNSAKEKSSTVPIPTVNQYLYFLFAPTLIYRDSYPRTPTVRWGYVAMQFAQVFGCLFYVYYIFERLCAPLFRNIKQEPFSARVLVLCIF

[3] = test system: Rattus norvegicus; test: Effect of single oral administration of 15 mg/kg of compound on free cholesterol of hypercholesterolemic rats; format: functional, organism-based; parameters: dose 15 mg/kg
[4] = test system: Rattus norvegicus; test: Effect of single oral administration of 15 mg/kg of compound on cholesterol esters of hypercholesterolemic rats; format: functional, organism-based; parameters: dose 15 mg/kg
[5] = test system: Rattus norvegicus; test: Effect of single oral administration of 15 mg/kg of compound on phospholipids of hypercholesterolemic rats; format: functional, organism-based; parameters: dose 15 mg/kg
[6] = molecular target: T2, Sterol O-acyltransferase 1 (Rattus norvegicus) (UniProt O70536); test: (§1) Inhibition of microsomal acyl-CoA: cholesterol acyltransferase in the presence of plasma from rats administered orally with 100 mg/kg of the compound; pmoles [14C]-Cholesteryl oleate formed / mg protein / min incubation; format: organism-based; parameters: dose 100 mg/kg
T2 sequence (whole entry): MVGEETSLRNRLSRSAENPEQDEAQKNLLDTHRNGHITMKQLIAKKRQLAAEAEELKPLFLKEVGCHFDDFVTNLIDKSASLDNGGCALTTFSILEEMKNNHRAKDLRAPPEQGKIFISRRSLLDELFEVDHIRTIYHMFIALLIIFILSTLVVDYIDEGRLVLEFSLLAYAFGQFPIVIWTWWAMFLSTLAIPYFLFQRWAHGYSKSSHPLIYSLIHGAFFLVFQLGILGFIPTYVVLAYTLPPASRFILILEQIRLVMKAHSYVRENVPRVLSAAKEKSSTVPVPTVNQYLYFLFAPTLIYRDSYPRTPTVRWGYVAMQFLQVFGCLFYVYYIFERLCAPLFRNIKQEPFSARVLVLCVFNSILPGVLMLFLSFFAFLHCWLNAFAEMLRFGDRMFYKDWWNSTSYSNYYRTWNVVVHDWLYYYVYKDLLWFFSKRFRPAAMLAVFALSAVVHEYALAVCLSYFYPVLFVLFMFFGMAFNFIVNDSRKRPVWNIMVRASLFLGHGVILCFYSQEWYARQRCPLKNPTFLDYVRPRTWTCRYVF

[7] = molecular target: T1, Acyl-CoA:cholesterol acyltransferase; test: Inhibitory activity against acyl-CoA: cholesterol acyltransferase (ACAT) in microsomes from cholesterol-fed rabbit intestinal mucosa
[8] = test system: Mus musculus; test: Effect of single oral administration of 10 mg/kg of compound on phospholipids of hypercholesterolemic mice; format: functional, organism-based; parameters: dose 10 mg/kg
[9] = test system: Mus musculus; test: Effect of single oral administration of 10 mg/kg of compound on triglycerides of hypercholesterolemic mice; format: functional, organism-based; parameters: dose 10 mg/kg
[10] = test system: Rattus norvegicus; test: Effect of single oral administration of 2 mg/kg of compound on free cholesterol of hypercholesterolemic rats; format: functional, organism-based; parameters: dose 2 mg/kg
[11] = test system: Mus musculus; test: Effect of single oral administration of 10 mg/kg of compound on free cholesterol of hypercholesterolemic mice; format: functional, organism-based; parameters: dose 10 mg/kg
[12] = test system: Rattus norvegicus; test: Effect of single oral administration of 2 mg/kg of compound on cholesterol esters of hypercholesterolemic rats; format: functional, organism-based; parameters: dose 2 mg/kg
[13] = Ratio of effect of single iv administration of compound at dose 10 mg/kg on liver free cholesterol/cholesterol esters of hypercholesterolemic mice; format: functional
[14] = molecular target: T2, Sterol O-acyltransferase 1 (Rattus norvegicus); test: as §1; format: functional, organism-based; parameters: dose 100 mg/kg
[15] = Ratio of effect of single oral administration of 15 mg/kg of compound on liver free cholesterol/cholesterol esters of hypercholesterolemic rats; format: functional
[16] = test system: Mus musculus; test: Effect of single oral administration of 10 mg/kg of compound on cholesterol esters of hypercholesterolemic mice; format: functional, organism-based; parameters: dose 10 mg/kg
[17] = Ratio of effect of single iv administration of compound at dose 2 mg/kg on liver free cholesterol/cholesterol esters of hypercholesterolemic rats; format: functional
[18] = test system: Rattus norvegicus; test: Effect of single oral administration of 2 mg/kg of compound on triglycerides of hypercholesterolemic rats; format: functional, organism-based; parameters: dose 2 mg/kg
[19] = test system: Rattus norvegicus; test: Effect of single oral administration of 2 mg/kg of compound on phospholipids of hypercholesterolemic rats; format: functional, organism-based; parameters: dose 2 mg/kg

## CC(C)c1cccc(C(C)C)c1NC(=O)NCC1(c2ccccc2)O[C@H](C)[C@@H](C)O1
[1]
  Plasma lipids: 76 mg/dL
[2]
  pIC50: 7.62
[3]
  Plasma lipids: 18 mg/dL
[4]
  Plasma lipids: 57 mg/dL
[5]
  Plasma lipids: 77 mg/dL
[6]
  Activity: 286
[7]
  pIC50: 7.57

## CC(C)c1cccc(C(C)C)c1NC(=O)NCC1(c2ccc(OP(=O)(O)O)cc2)O[C@H](C)[C@@H](C)O1
[1]
  Plasma lipids: 98 mg/dL
[2]
  pIC50: 5.59
[8]
  Plasma lipids: 142 mg/dL
[3]
  Plasma lipids: 28 mg/dL
[9]
  Plasma lipids: 71 mg/dL
[4]
  Plasma lipids: 73 mg/dL
[10]
  Plasma lipids: 39 mg/dL
[11]
  Plasma lipids: 26 mg/dL
[12]
  Plasma lipids: 134 mg/dL
[13]
  Ratio: 0.316
[14]
  Activity: 148
[15]
  Ratio: 0.38
[5]
  Plasma lipids: 84 mg/dL
[16]
  Plasma lipids: 79 mg/dL
[17]
  Ratio: 0.188
[18]
  Plasma lipids: 126 mg/dL
[7]
  pIC50: 5.97
[19]
  Plasma lipids: 138 mg/dL

## CC(C)c1cccc(C(C)C)c1NC(=O)NCC1(c2ccc(O)cc2)O[C@H](C)[C@@H](C)O1
[1]
  Plasma lipids: 126 mg/dL
[3]
  Plasma lipids: 33 mg/dL
[4]
  Plasma lipids: 75 mg/dL
[5]
  Plasma lipids: 96 mg/dL

From ChEMBL document CHEMBL1128773, “Synthesis and pharmacological profile of FCE 28654: A water-soluble and injectable ACAT inhibitor” (Bioorg Med Chem Lett, 1995)
